{"source": "patent US20250312365A1", "about": "“METHODS FOR INHIBITION OF SQUAMOUS CARCINOMA CELLS USING CERAMIDE MODULATORS” (The Trustees of Indiana University, priority 2024, published 2025)", "type_in_all_cases": "cell-based, human", "key": {"[1]": {"test_system": "healthy epithelial OBA9 cells", "experiment": "Untargeted metabolomic pathway analysis (LC/MS) in healthy OBA9 cells", "conditions": "1 μg/ml for 6 h", "source_text": "(§1) Based on this analysis, at least 5 different cell survival metabolomic pathways, underlined in red were diminished in OSCC (OECM1 and SCC9), but not in healthy epithelial OBA9 cells in response to PGDHC. The 5 pathways were folate metabolism, arginine and proline metabolism, glycine and serine metabolism, de novo triacylglycerol biosynthesis, and mitrochondrial electron transport chain.\nThe Warburg effect is a metabolic phenomenon observed in many cancer cells, where the cells preferentially use glycolysis metabolism to produce energy instead of oxidative phosphorylation. The Warburg effect is a hallmark of rapid cancer cell growth. Therefore, we evaluated whether PGDHC altered Warburg effect in OSCM1 and SCC9 oral squamous cell carcinoma cells (FIG. 17A), but not healthy epithelial OBA9 cells (FIG. 17B), in vitro. Cells were stimulated with PGDHC (1 μg/ml) for 6 h and the untargeted metabolomic analysis was performed using LC/MS mass-spectrometry. Polar and lipid metabolites were analyzed with HILIC/MS and LC/MS, respectively. […]\nBased upon the impact of PGDHC on the Warburg effect in OSCC cells, we further analyzed the levels of cancer-survival metabolites adenosine triphosphate (ATP) and glucose in the OECM1, SCC9, and OBA9 cells described in Example 11. […]"}, "OECM1 cells [2]": {"test_system": "OECM1 cells", "experiment": "Untargeted metabolomic pathway analysis (LC/MS) in OECM1 cells", "conditions": "1 μg/ml for 6 h", "source_text": "as §1\nThe plots in FIGS. 16A and 16B display the enriched pathways identified in the analysis, with their corresponding significance levels represented on the x-axis. The significance threshold (p<0.05) is denoted by the dashed line. […] Additionally, the color of the dots represents the enrichment, which indicates the extent to which the metabolites in the pathway were clustered amongst the compounds with the most positive fold-changes (positive enrichments), the most negative fold-changes (negative enrichments), or uniformly distributed across high and low fold-change compounds (enrichment values near 0.0). […] Polar and lipid metabolites were analyzed with hydrophilic interaction chromatography (HILIC/MS) and liquid chromatography (LC/MS), respectively. Mass spectrometry analysis was completed with a mass range of 67-1500 Da with 1 scan/sec and a mass resolution of 120,000 in both positive and negative ionization mode. The MS/MS mass-spectrometry data were acquired in a data-dependent iterative fashion with a 1.3 m/z isolation window. Based upon this metabolomic analysis, phosphoglycerol dihydroceramide (PGDHC) isolated from Porphyromonas gingivalis inhibits metabolomic pathways essential for cell survival in oral squamous cell carcinoma cells (OSCC).\nThe Warburg effect is a metabolic phenomenon observed in many cancer cells, where the cells preferentially use glycolysis metabolism to produce energy instead of oxidative phosphorylation. The Warburg effect is a hallmark of rapid cancer cell growth. Therefore, we evaluated whether PGDHC altered Warburg effect in OSCM1 and SCC9 oral squamous cell carcinoma cells (FIG. 17A), but not healthy epithelial OBA9 cells (FIG. 17B), in vitro. Cells were stimulated with PGDHC (1 μg/ml) for 6 h and the untargeted metabolomic analysis was performed using LC/MS mass-spectrometry. Polar and lipid metabolites were analyzed with HILIC/MS and LC/MS, respectively. Mass spectrometry analysis was completed with a mass range of 67-1500 Da with 1 scan/sec and a mass resolution of 120,000 in both positive and negative ionization mode. MS/MS data were acquired in a data-dependent iterative fashion with a 1.3 m/z isolation window.\nBased upon the impact of PGDHC on the Warburg effect in OSCC cells, we further analyzed the levels of cancer-survival metabolites adenosine triphosphate (ATP) and glucose in the OECM1, SCC9, and OBA9 cells described in Example 11. As shown in FIG. 18A and FIG. 18B, PGDHC altered the levels of both ATP and glucose in OECM1 and SCC9 oral squamous cell carcinoma cells, but not OBA9. The metabolites levels are presented as the relative abundance based on the data presented in FIG. 16 and FIG. 17 heat maps."}, "MMP2": {"test_system": "MMP2", "experiment": "MMP2 mRNA expression in OECM1 cells", "procedure": "NF-kB, MMP-2, ADAM-17, and IL6 are implicated in the degradation of the expression of genes involved in the cell basement membrane and extracellular matrix of oral squamous cell carcinoma. Accordingly, the expression of NFkB, MMP2, ADAM17, and IL6 in OECM1 cells following exposure to 0.1 μg/ml PGDHC and 1 μg/ml PGDHC was determined.\nSphingosine-1-phosphate (S1P) sphingolipid plays an essential role in the survival, migration, and degradation of the basement membrane and extracellular matrix of oral squamous cell carcinoma (Yura et al., Cancers (Basel). 2020 August; 12(8): 2062). To determine whether PGDHC can inhibit such properties, the combined effects of PGDHC and S1P on OECM1 gene expression was tested in vitro."}, "OECM1 cells [3]": {"test_system": "OECM1 cells", "experiment": "Scratch wound healing migration assay, OECM1", "conditions": "compared to sham control", "source_text": "In vitro assays can be used to evaluate cell migration, including scratch-wound assays and wound healing assays, as in Xu et al., Exp Ther Med. 2023 October; 26(4):460. See also Liang et al., Nat Protoc. 2007;2(2):329-33 and Martinetti & Ronzato, Methods Mol Biol. 2020:2109:225-229. Additionally, the genetic components of cell migration and invasion can be evaluated. For example, MMP-2, ADAM-17 and IL-6 are associated with degradation of the basement membranes and extracellular matrix in OECM-1 cells. See, e.g., Yamada et al., J Cell Mol Med. 2023 May; 27(9):1290-1295.\nA scratch wound healing assay was performed according to known methods to assess the effects of PGDHC on the migration of human oral squamous cell carcinoma cells. […] The scratch wound healing assay was validated with a transwell migration assay.\nA wound healing migration assay was also conducted to determine the effects of S1P alone or in combination with PGDHC on cell migration. See Yamada et al., J Cell Mol Med. 2023 May; 27(9):1290-1295."}, "N-cadherin": {"test_system": "N-cadherin", "experiment": "Western blot of N-cadherin in OECM1 cells", "conditions": "24 h of treatment", "procedure": "To determine the effect of PGDHC on cell markers involved in metastasis, the protein levels of p-STAT3, EMT markers, E-cadherin, N-cadherin, and Vimentin in OECM1 cells following in vitro exposure to PGDHC were determined by Western blot assay."}}, "note": "Entries after “also recorded” stand apart in the source; their conditions may differ.", "data": [{"substance": "phosphoglycerol dihydroceramide [PGDHC]", "values": [{"measurement": "Warburg effect in healthy OBA9 cells", "setting": "[1]", "value": "no effect"}, {"measurement": "Warburg effect in OECM1 cells", "setting": "OECM1 cells [2]", "value": "altered"}, {"measurement": "arginine and proline metabolism in OECM1 cells", "setting": "OECM1 cells [2]", "value": "diminished accumulation; also recorded: inhibits"}, {"measurement": "de novo triacylglycerol biosynthesis in OECM1 cells", "setting": "OECM1 cells [2]", "value": "diminished accumulation; also recorded: inhibits"}, {"measurement": "folate metabolism in OECM1 cells", "setting": "OECM1 cells [2]", "value": "diminished accumulation; also recorded: inhibits"}, {"measurement": "glycine and serine metabolism in OECM1 cells", "setting": "OECM1 cells [2]", "value": "diminished accumulation; also recorded: inhibits"}, {"measurement": "level of ATP in OECM1 cells (relative abundance)", "setting": "OECM1 cells [2]", "value": "altered"}, {"measurement": "level of glucose in OECM1 cells (relative abundance)", "setting": "OECM1 cells [2]", "value": "altered"}, {"measurement": "mitochondrial electron transport in OECM1 cells", "setting": "OECM1 cells [2]", "value": "diminished accumulation; also recorded: inhibits"}, {"measurement": "expression of MMP2 mRNA in OECM1 cells", "setting": "MMP2; 1 μg/ml", "value": "significantly inhibited"}, {"measurement": "MMP2 mRNA levels in OECM1 cells exposed to S1P", "setting": "MMP2; in combination with S1P", "value": "a significant effect was not observed"}, {"measurement": "OECM1 migration, scratch wound healing assay", "setting": "OECM1 cells [3]; 1 μg/ml", "value": "significantly inhibited"}, {"measurement": "S1P-mediated wound-healing migration of OECM1", "setting": "OECM1 cells [3]; in combination with S1P", "value": "dramatically inhibited"}, {"measurement": "protein level of N-cadherin in OECM1 cells", "setting": "N-cadherin", "value": "little to no detectable effect"}]}]}
